# Results reported in ChEMBL document CHEMBL1909046, “DrugMatrix in vitro pharmacology data”.
# What was measured:
# [1] = target: D(1A) dopamine receptor (Homo sapiens, UniProt P21728); assay: DRUGMATRIX: Dopamine D1 radioligand binding (ligand: [3H] SCH-23390); type: cell membranes, CHO, Membrane; conditions: Not Active = under 50% inhibition at 10 µM
# [2] = target: Aldo-keto reductase family 1 member B1 (Rattus norvegicus, UniProt P07943); assay: biochemical; type: tissue-based, Lens of camera-type eye;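 further: inhibition of aldose reductase enzyme activity, measured with DL-glyceraldehyde as the substrate; in other assays of this panel Not Active means under 50% inhibition at 10 µM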
# [3] = DRUGMATRIX: GABAA, Flunitrazepam, Central radioligand binding (ligand: [3H] Flunitrazepam); type: cell membranes, Rattus norvegicus, Wistar, Brain, Membrane; conditions: Not Active = under 50% inhibition at 10 µM
# [4] = target: T1, Alpha-2A adrenergic receptor (Homo sapiens, UniProt P08913); type: cell membranes, Sf9, Membrane; further: in other assays of this panel Not Active means under 50% inhibition at 10 µM
# T1 sequence (P08913 whole entry): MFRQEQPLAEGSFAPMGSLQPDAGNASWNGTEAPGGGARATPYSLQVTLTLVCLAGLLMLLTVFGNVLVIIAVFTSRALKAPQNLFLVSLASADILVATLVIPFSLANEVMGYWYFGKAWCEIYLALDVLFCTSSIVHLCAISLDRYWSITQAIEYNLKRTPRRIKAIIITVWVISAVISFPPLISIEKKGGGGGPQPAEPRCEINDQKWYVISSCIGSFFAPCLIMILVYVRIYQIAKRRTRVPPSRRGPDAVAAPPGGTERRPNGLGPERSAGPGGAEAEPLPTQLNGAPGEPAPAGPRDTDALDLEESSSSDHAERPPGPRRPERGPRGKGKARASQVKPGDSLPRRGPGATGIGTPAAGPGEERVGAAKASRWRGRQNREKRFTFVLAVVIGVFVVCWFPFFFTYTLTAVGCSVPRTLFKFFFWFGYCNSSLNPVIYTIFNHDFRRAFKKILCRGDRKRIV
# [5] = target: T2, Thromboxane-A synthase (Homo sapiens, UniProt P24557); assay: biochemical; type: tissue-based, Platelet;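 further: enzyme inhibition assay with PGH2 supplied as substrate; in other assays of this panel Not Active means under 50% inhibition at 10 µM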
# T2 sequence (P24557 whole entry): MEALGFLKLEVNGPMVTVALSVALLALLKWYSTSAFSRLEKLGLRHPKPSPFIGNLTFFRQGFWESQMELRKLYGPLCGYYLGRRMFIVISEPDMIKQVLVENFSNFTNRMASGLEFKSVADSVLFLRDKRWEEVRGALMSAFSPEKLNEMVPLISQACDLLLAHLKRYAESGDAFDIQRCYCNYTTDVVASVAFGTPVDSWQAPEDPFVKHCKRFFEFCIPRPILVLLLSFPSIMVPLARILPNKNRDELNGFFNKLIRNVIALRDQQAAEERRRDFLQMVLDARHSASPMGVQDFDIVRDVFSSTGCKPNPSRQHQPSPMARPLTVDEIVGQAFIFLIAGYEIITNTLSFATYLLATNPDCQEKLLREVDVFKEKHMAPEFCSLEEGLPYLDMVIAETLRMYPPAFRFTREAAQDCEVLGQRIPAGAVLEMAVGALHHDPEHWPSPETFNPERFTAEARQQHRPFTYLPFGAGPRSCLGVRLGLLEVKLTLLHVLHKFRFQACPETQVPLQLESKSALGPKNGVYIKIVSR
# Sequence of D(1A) dopamine receptor (P21728 whole entry): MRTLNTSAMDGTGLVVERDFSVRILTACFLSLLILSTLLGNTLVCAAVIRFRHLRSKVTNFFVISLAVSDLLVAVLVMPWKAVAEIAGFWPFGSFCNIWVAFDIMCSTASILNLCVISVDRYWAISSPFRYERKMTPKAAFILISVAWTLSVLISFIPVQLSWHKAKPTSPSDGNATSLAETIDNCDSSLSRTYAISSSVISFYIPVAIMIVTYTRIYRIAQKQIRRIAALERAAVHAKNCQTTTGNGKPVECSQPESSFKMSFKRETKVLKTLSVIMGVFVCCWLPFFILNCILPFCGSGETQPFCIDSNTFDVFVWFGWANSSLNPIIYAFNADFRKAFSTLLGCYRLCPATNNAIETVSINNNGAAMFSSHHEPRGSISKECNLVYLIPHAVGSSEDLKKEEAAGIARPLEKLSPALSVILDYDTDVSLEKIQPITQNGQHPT
Compound,IC50 ([1]; cho),IC50 [2],IC50 [3],Ki [3],IC50 ([4]; sf9),IC50 ([5]; platelet),Ki ([1]; cho),Ki [2],Ki ([4]; sf9),Ki ([5]; platelet),IC50 ([4]; read-out: IC50) [µM],Ki ([4]; read-out: Ki) [µM],IC50 ([5]; read-out: IC50) [µM],IC50 ([2]; read-out: IC50) [µM],IC50 ([1]; read-out: IC50) [µM],Ki ([1]; read-out: Ki) [µM]
CCN1C[C@]2(COC)[C@H](O)C[C@H](OC)[C@@]34[C@@H]5C[C@@]6(O)[C@H](OC(=O)c7ccccc7)[C@@H]5[C@@](OC(C)=O)([C@@H]([C@H](OC)[C@H]23)[C@@H]14)[C@@H](O)[C@@H]6OC [ACONITINE],Not Active,Not Active,Not Active,Not Active,Not Active,Not Active,–,–,–,–,–,–,–,–,–,–
CO[C@H]1O[C@@H]2O[C@@]3(C)CC[C@H]4[C@H](C)CC[C@@H]([C@H]1C)[C@@]24OO3,Not Active,Not Active,Not Active,Not Active,Not Active,Not Active,–,–,–,–,–,–,–,–,–,–
C[C@@H]1[C@H](O)[C@@H](C)/C=C/C=C/C=C/C=C/C=C/C=C/C=C/[C@H](O[C@@H]2O[C@H](C)[C@@H](O)[C@H](N)[C@@H]2O)C[C@@H]2O[C@](O)(C[C@@H](O)C[C@@H](O)[C@H](O)CC[C@@H](O)C[C@@H](O)CC(=O)O[C@H]1C)C[C@H](O)[C@H]2C(=O)O [AMPHOTERICIN B],Not Active,Not Active,Not Active,Not Active,Not Active,Not Active,–,–,–,–,–,–,–,–,–,–
Oc1ncnc2[nH]ncc12 [ALLOPURINOL],Not Active,Not Active,Not Active,Not Active,Not Active,Not Active,–,–,–,–,–,–,–,–,–,–
COc1cc([C@@H]2c3cc4c(cc3[C@H](O)[C@H]3COC(=O)[C@H]23)OCO4)cc(OC)c1OC [PODOFILOX],Not Active,Not Active,Not Active,Not Active,Not Active,Not Active,–,–,–,–,–,–,–,–,–,–
NC(=O)CN1CCCC1=O,Not Active,Not Active,Not Active,Not Active,Not Active,Not Active,–,–,–,–,–,–,–,–,–,–
POVIDONE,Not Active,Not Active,Not Active,Not Active,Not Active,Not Active,Not Active,Not Active,Not Active,Not Active,–,–,–,–,–,–
Cc1c(N)nc([C@H](CC(N)=O)NC[C@H](N)C(N)=O)nc1C(=O)N[C@H](C(=O)N[C@H](C)[C@@H](O)[C@H](C)C(=O)N[C@H](C(=O)NCCc1nc(-c2nc(C(=O)NCCC[S+](C)C)cs2)cs1)[C@@H](C)O)[C@@H](O[C@@H]1O[C@@H](CO)[C@@H](O)[C@H](O)[C@@H]1O[C@H]1O[C@H](CO)[C@@H](O)[C@H](OC(N)=O)[C@@H]1O)c1c[nH]cn1.[Br-] [BLEOMYCIN A2],Not Active,Not Active,Not Active,Not Active,Not Active,Not Active,–,–,–,–,–,–,–,–,–,–
CN(Cc1cc(Br)cc(Br)c1N)C1CCCCC1 [BROMHEXINE],Not Active,Not Active,Not Active,Not Active,Not Active,Not Active,–,–,–,–,–,–,–,–,–,–
Nc1ccc(Cc2ccc(N)cc2)cc1,Not Active,Not Active,Not Active,Not Active,Not Active,Not Active,–,–,–,–,–,–,–,–,–,–
C[C@]12CC[C@@H](O)C[C@@H]1CC[C@@H]1[C@@H]2CC[C@]2(C)C(=O)CC[C@@H]12 [ANDROSTERONE],Not Active,Not Active,Not Active,Not Active,Not Active,Not Active,–,–,–,–,–,–,–,–,–,–
O=C(O)c1ccccc1 [BENZOIC ACID],Not Active,Not Active,Not Active,Not Active,Not Active,Not Active,–,–,–,–,–,–,–,–,–,–
CC(=O)Nc1ccc2c(c1)Cc1ccccc1-2 [2-ACETYLAMINOFLUORENE],Not Active,Not Active,Not Active,Not Active,–,Not Active,–,–,–,–,21.1,7.9,–,–,–,–
C[C@H](C(=O)O)c1ccc2oc(-c3ccc(F)cc3)nc2c1 [FLUNOXAPROFEN],Not Active,Not Active,Not Active,Not Active,Not Active,Not Active,–,–,–,–,–,–,–,–,–,–
C[C@H]1C[C@H]2[C@@H]3CCC4=CC(=O)C=C[C@]4(C)[C@@]3(F)[C@@H](O)C[C@]2(C)[C@@]1(O)C(=O)CO [BETAMETHASONE],Not Active,Not Active,Not Active,Not Active,Not Active,Not Active,–,–,–,–,–,–,–,–,–,–
CN(CCOc1ccc(C[C@H](Nc2ccccc2C(=O)c2ccccc2)C(=O)O)cc1)c1ccccn1,Not Active,Not Active,Not Active,Not Active,Not Active,–,–,–,–,–,–,–,2.95,–,–,–

Compound,IC50 ([1]; cho),IC50 [2],IC50 [3],Ki [3],IC50 ([4]; sf9),IC50 ([5]; platelet),Ki ([1]; cho),Ki [2],Ki ([4]; sf9),Ki ([5]; platelet),IC50 ([4]; read-out: IC50) [µM],Ki ([4]; read-out: Ki) [µM],IC50 ([5]; read-out: IC50) [µM],IC50 ([2]; read-out: IC50) [µM],IC50 ([1]; read-out: IC50) [µM],Ki ([1]; read-out: Ki) [µM]
NS(=O)(=O)c1cc(C(=O)O)c(NCc2ccco2)cc1Cl [FUROSEMIDE],Not Active,Not Active,Not Active,Not Active,Not Active,Not Active,–,–,–,–,–,–,–,–,–,–
CCN1CCN(c2cc3c(cc2F)c(=O)c(C(=O)O)cn3C2CC2)CC1 [ENROFLOXACIN],Not Active,Not Active,Not Active,Not Active,Not Active,Not Active,–,–,–,–,–,–,–,–,–,–
C[N+](C)(C)CCOP(=O)([O-])OC[C@H](O)CO,Not Active,Not Active,Not Active,Not Active,Not Active,Not Active,–,–,–,–,–,–,–,–,–,–
"O=C(Nc1ccc(Cl)c(Cl)c1)c1cc(Cl)cc(Cl)c1O [3,3',4',5-TETRACHLOROSALICYLANILIDE]",Not Active,Not Active,Not Active,Not Active,Not Active,–,–,–,–,–,–,–,4.93,–,–,–
O=C(O)COC(=O)Cc1ccccc1Nc1c(Cl)cccc1Cl [ACECLOFENAC],Not Active,–,Not Active,Not Active,Not Active,Not Active,–,–,–,–,–,–,–,1.29,–,–
O=c1[nH]c2ccccc2c2ccccc12,Not Active,Not Active,Not Active,Not Active,Not Active,Not Active,–,–,–,–,–,–,–,–,–,–
C=CCN1CC[C@]23c4c5ccc(O)c4O[C@H]2/C(=N/N=C2\CC[C@@]4(O)[C@H]6Cc7ccc(O)c8c7[C@@]4(CCN6CC=C)[C@H]2O8)CC[C@@]3(O)[C@H]1C5 [NALOXONAZINE],Not Active,Not Active,Not Active,Not Active,Not Active,Not Active,–,–,–,–,–,–,–,–,–,–
ClC1=C(Cl)[C@]2(Cl)[C@@H]3[C@@H]4C[C@@H]([C@H]5O[C@@H]45)[C@@H]3[C@@]1(Cl)C2(Cl)Cl [DIELDRIN],Not Active,Not Active,Not Active,Not Active,Not Active,Not Active,–,–,–,–,–,–,–,–,–,–
COPPER(II) OXIDE,Not Active,Not Active,Not Active,Not Active,Not Active,Not Active,Not Active,Not Active,Not Active,Not Active,–,–,–,–,–,–
CCO [ALCOHOL],Not Active,Not Active,Not Active,Not Active,Not Active,Not Active,–,–,–,–,–,–,–,–,–,–
CC(N)Cc1c[nH]c2ccc(OCc3cccs3)cc12 (configuration not stated) [BW-723C86],Not Active,Not Active,Not Active,Not Active,Not Active,Not Active,–,–,–,–,–,–,–,–,–,–
CCN(CCO)CCCC(C)Nc1ccnc2cc(Cl)ccc12 (configuration not stated) [HYDROXYCHLOROQUINE],Not Active,Not Active,Not Active,Not Active,Not Active,Not Active,–,–,–,–,–,–,–,–,–,–
c1ccc2sc(SSc3nc4ccccc4s3)nc2c1 [BENZOTHIAZYL DISULFIDE],–,Not Active,Not Active,Not Active,–,Not Active,–,–,–,–,0.899,0.337,–,–,1.19,0.595
CC(C)Cc1ccc([C@H](C)C(=O)O)cc1 [DEXIBUPROFEN],Not Active,Not Active,Not Active,Not Active,Not Active,Not Active,–,–,–,–,–,–,–,–,–,–
Cl.NC[C@H]1CC[C@H](C(=O)Oc2ccc(CCC(=O)O)cc2)CC1 [CETRAXATE HYDROCHLORIDE],Not Active,Not Active,Not Active,Not Active,Not Active,Not Active,–,–,–,–,–,–,–,–,–,–
